Results taken from ChEMBL document CHEMBL4257490, “Development of a peptide-based bifunctional chelator conjugated to a cytotoxic drug for the treatment of melanotic melanoma” (Medchemcomm, 2018).

Experiments:
[1] = Drug uptake in liver of Balb/c mouse allografted with mouse B16F10 cells using 99mTc(CO)3-labeled compound at 10 to 12 MBq/kg, iv measured at 4 hrs; assay type: ADME, organism-based; details: in vivo
[2] = Drug uptake in spleen of Balb/c mouse allografted with mouse B16F10 cells using 99mTc(CO)3-labeled compound at 10 to 12 MBq/kg, iv measured at 2 hrs; assay type: ADME, organism-based; details: in vivo
[3] = Drug uptake in muscle of Balb/c mouse allografted with mouse B16F10 cells using 99mTc(CO)3-labeled compound at 10 to 12 MBq/kg, iv measured at 4 hrs; assay type: ADME, organism-based, Muscle tissue; details: in vivo
[4] = Ratio of drug level in tumor to blood of Balb/c mouse allografted with mouse B16F10 cells using 99mTc(CO)3-labeled compound at 10 to 12 MBq/kg, iv measured at 2 hrs; assay type: ADME, organism-based, Tumor/tissue
[5] = Drug uptake in urinary bladder of Balb/c mouse allografted with mouse B16F10 cells using 99mTc(CO)3-labeled compound at 4 to 8 MBq, iv measured at 4 hrs by scintigraphic imaging method; assay type: ADME, organism-based; details: in vivo
[6] = Stability in saline assessed as parent compond remaining using 99mTc(CO)3-labeled compound after 24 hrs by TLC method; assay type: physicochemical; details: read-out: Stability
[7] = Drug uptake in kidney of Balb/c mouse allografted with mouse B16F10 cells using 99mTc(CO)3-labeled compound at 4 to 8 MBq, iv measured at 4 hrs by scintigraphic imaging method; assay type: ADME, organism-based; details: in vivo
[8] = Drug degradation in histidine solution using 99mTc(CO)3-labeled compound after 24 hrs by TLC method; assay type: physicochemical; details: read-out: Drug degradation
[9] = Drug uptake in heart of Balb/c mouse allografted with mouse B16F10 cells using 99mTc(CO)3-labeled compound at 10 to 12 MBq/kg, iv measured at 2 hrs; assay type: ADME, organism-based; details: in vivo
[10] = Drug uptake in liver of Balb/c mouse allografted with mouse B16F10 cells using 99mTc(CO)3-labeled compound at 10 to 12 MBq/kg, iv measured at 2 hrs; assay type: ADME, organism-based; details: in vivo
[11] = Drug uptake in mouse B16F10 cells using 99mTc(CO)3-labeled compound at 15 to 20 MBq/ml after 240 mins by gamma scintillation counting method; assay type: ADME, cell-based; details: b16-f10, 4 h
[12] = Drug uptake in tumor of Balb/c mouse allografted with mouse B16F10 cells using 99mTc(CO)3-labeled compound at 4 to 8 MBq, iv measured at 4 hrs by scintigraphic imaging method; assay type: ADME, organism-based, Neoplasm; details: in vivo
[13] = Drug uptake in stomach of Balb/c mouse allografted with mouse B16F10 cells using 99mTc(CO)3-labeled compound at 10 to 12 MBq/kg, iv measured at 2 hrs; assay type: ADME, organism-based; details: in vivo
[14] = n-Octanol-phosphate buffer partition co-efficient, log P of 99mTc(CO)3-labeled compound at 2 to 3 KBq after 1 min by gamma scintillation counting method; assay type: physicochemical
[15] = Drug uptake in blood of Balb/c mouse allografted with mouse B16F10 cells using 99mTc(CO)3-labeled compound at 10 to 12 MBq/kg, iv measured at 4 hrs; assay type: ADME, organism-based; details: in vivo
[16] = Drug uptake in mouse B16F10 cells using 99mTc(CO)3-labeled compound at 15 to 20 MBq/ml after 30 mins by gamma scintillation counting method relative to total added activity; assay type: ADME, cell-based; details: b16-f10, 0.5 h
[17] = Drug uptake in intestine of Balb/c mouse allografted with mouse B16F10 cells using 99mTc(CO)3-labeled compound at 10 to 12 MBq/kg, iv measured at 2 hrs; assay type: ADME, organism-based; details: in vivo
[18] = Hemolytic activity in rat erythrocytes at 100 uM after 1 hr relative to control; assay type: ADME, cell-based, Erythrocyte; details: read-out: Activity
[19] = Drug uptake in muscle of Balb/c mouse allografted with mouse B16F10 cells using 99mTc(CO)3-labeled compound at 10 to 12 MBq/kg, iv measured at 2 hrs; assay type: ADME, organism-based, Muscle tissue; details: in vivo
[20] = Drug uptake in liver of Balb/c mouse allografted with mouse B16F10 cells using 99mTc(CO)3-labeled compound at 4 to 8 MBq, iv measured at 4 hrs by scintigraphic imaging method; assay type: ADME, organism-based; details: in vivo
[21] = Drug uptake in blood of Balb/c mouse allografted with mouse B16F10 cells using 99mTc(CO)3-labeled compound at 10 to 12 MBq/kg, iv measured at 2 hrs; assay type: ADME, organism-based; details: in vivo
[22] = Drug uptake in kidney of Balb/c mouse allografted with mouse B16F10 cells using 99mTc(CO)3-labeled compound at 10 to 12 MBq/kg, iv measured at 2 hrs; assay type: ADME, organism-based; details: in vivo
[23] = Drug uptake in mouse B16F10 cells using 99mTc(CO)3-labeled compound at 15 to 20 MBq/ml after 30 mins by gamma scintillation counting method; assay type: ADME, cell-based; details: b16-f10, 0.5 h
[24] = Drug uptake in tumor muscle of Balb/c mouse allografted with mouse B16F10 cells using 99mTc(CO)3-labeled compound at 10 to 12 MBq/kg, iv measured at 4 hrs; assay type: ADME, organism-based; details: in vivo
[25] = Ratio of drug level in tumor to muscle of Balb/c mouse allografted with mouse B16F10 cells using 99mTc(CO)3-labeled compound at 10 to 12 MBq/kg, iv measured at 4 hrs; assay type: ADME, organism-based, Tumor/tissue; details: in vivo
[26] = Drug uptake in gastrointestinal tract of Balb/c mouse allografted with mouse B16F10 cells using 99mTc(CO)3-labeled compound at 4 to 8 MBq, iv measured at 4 hrs by scintigraphic imaging method; assay type: ADME, organism-based; details: in vivo
[27] = Drug uptake in stomach of Balb/c mouse allografted with mouse B16F10 cells using 99mTc(CO)3-labeled compound at 10 to 12 MBq/kg, iv measured at 4 hrs; assay type: ADME, organism-based; details: in vivo
[28] = Drug uptake in lung of Balb/c mouse allografted with mouse B16F10 cells using 99mTc(CO)3-labeled compound at 10 to 12 MBq/kg, iv measured at 4 hrs; assay type: ADME, organism-based; details: in vivo
[29] = Drug uptake in kidney of Balb/c mouse allografted with mouse B16F10 cells using 99mTc(CO)3-labeled compound at 10 to 12 MBq/kg, iv measured at 4 hrs; assay type: ADME, organism-based; details: in vivo
[30] = Drug uptake in lung of Balb/c mouse allografted with mouse B16F10 cells using 99mTc(CO)3-labeled compound at 10 to 12 MBq/kg, iv measured at 2 hrs; assay type: ADME, organism-based; details: in vivo
[31] = Ratio of drug level in tumor to blood of Balb/c mouse allografted with mouse B16F10 cells using 99mTc(CO)3-labeled compound at 10 to 12 MBq/kg, iv measured at 4 hrs; assay type: ADME, organism-based, Tumor/tissue
[32] = Drug uptake in tumor muscle of Balb/c mouse allografted with mouse B16F10 cells using 99mTc(CO)3-labeled compound at 10 to 12 MBq/kg, iv measured at 2 hrs; assay type: ADME, organism-based; details: in vivo
[33] = Drug uptake in spleen of Balb/c mouse allografted with mouse B16F10 cells using 99mTc(CO)3-labeled compound at 10 to 12 MBq/kg, iv measured at 4 hrs; assay type: ADME, organism-based; details: in vivo
[34] = Drug uptake in mouse B16F10 cells using 99mTc(CO)3-labeled compound at 15 to 20 MBq/ml after 240 mins by gamma scintillation counting method relative to total added activity; assay type: ADME, cell-based; details: b16-f10, 4 h
[35] = Drug uptake in heart of Balb/c mouse allografted with mouse B16F10 cells using 99mTc(CO)3-labeled compound at 10 to 12 MBq/kg, iv measured at 4 hrs; assay type: ADME, organism-based; details: in vivo
[36] = Drug uptake in intestine of Balb/c mouse allografted with mouse B16F10 cells using 99mTc(CO)3-labeled compound at 10 to 12 MBq/kg, iv measured at 4 hrs; assay type: ADME, organism-based; details: in vivo
[37] = Drug uptake in urine of Balb/c mouse allografted with mouse B16F10 cells using 99mTc(CO)3-labeled compound at 10 to 12 MBq/kg, iv measured at 2 hrs; assay type: ADME, organism-based; details: in vivo
[38] = Drug uptake in urine of Balb/c mouse allografted with mouse B16F10 cells using 99mTc(CO)3-labeled compound at 10 to 12 MBq/kg, iv measured at 4 hrs; assay type: ADME, organism-based; details: in vivo
[39] = Metabolic stability in rat serum assessed as parent compound remaining using 99mTc(CO)3-labeled compound after 24 hrs by TLC method; assay type: ADME, cell-free; details: read-out: Stability
[40] = Ratio of drug level in tumor to muscle of Balb/c mouse allografted with mouse B16F10 cells using 99mTc(CO)3-labeled compound at 10 to 12 MBq/kg, iv measured at 2 hrs; assay type: ADME, organism-based, Tumor/tissue; details: in vivo
[41] = Hemolytic activity in rat erythrocytes up to 50 uM after 1 hr relative to control; assay type: ADME, cell-based, Erythrocyte; details: read-out: Activity

**Q.** For H-HYKHGKDGR-NH2, which Drug uptake [1] is on record?
**A.** 18.89 % ID/g

**Q.** What about the Drug uptake [2] of the same substance?
**A.** 0.76 % ID/g

**Q.** What about the Drug uptake [3] of the same substance?
**A.** 0.14 % ID/g

**Q.** What about the Kp at 2 h [4] of the same substance?
**A.** 0.61

**Q.** What about the Drug uptake [5] of the same substance?
**A.** Active

**Q.** And the remaining at 24 h [6]?
**A.** ≥ 92%

**Q.** What about the Drug uptake [7] of the same substance?
**A.** Active

**Q.** And the degraded at 24 h [8]?
**A.** 5%

**Q.** And the Drug uptake [9]?
**A.** 0.09 % ID/g

**Q.** And the Drug uptake [10]?
**A.** 21.17 % ID/g

**Q.** What about the Drug uptake [11] of the same substance?
**A.** 76%

**Q.** What about the Drug uptake [12] of the same substance?
**A.** Not Active

**Q.** What about the Drug uptake [13] of the same substance?
**A.** 0.29 % ID/g

**Q.** What about the logP at 1 min [14] of the same substance?
**A.** -1.34

**Q.** And the Drug uptake [15]?
**A.** 1.31 %ID/ml

**Q.** What about the Drug uptake [16] of the same substance?
**A.** 3.99%

**Q.** And the Drug uptake [17]?
**A.** 7.5 % ID/g

**Q.** What about the hemolysis at 1 h, 100 µM [18] of the same substance?
**A.** 7 to 9%

**Q.** What about the Drug uptake [19] of the same substance?
**A.** 0.16 % ID/g

**Q.** What about the Drug uptake [20] of the same substance?
**A.** Active

**Q.** What about the Drug uptake [21] of the same substance?
**A.** 1.5 %ID/ml

**Q.** And the Drug uptake [22]?
**A.** 16.12 % ID/g

**Q.** What about the Drug uptake [23] of the same substance?
**A.** 35.24%

**Q.** And the Drug uptake [24]?
**A.** 1.09 % ID/g

**Q.** What about the Ratio [25] of the same substance?
**A.** 7.78

**Q.** What about the Drug uptake [26] of the same substance?
**A.** Active

**Q.** And the Drug uptake [27]?
**A.** 0.21 % ID/g

**Q.** And the Drug uptake [28]?
**A.** 0.19 % ID/g

**Q.** And the Drug uptake [29]?
**A.** 13.91 % ID/g

**Q.** What about the Drug uptake [30] of the same substance?
**A.** 0.25 % ID/g

**Q.** And the Kp at 4 h [31]?
**A.** 0.83

**Q.** And the Drug uptake [32]?
**A.** 0.92 % ID/g

**Q.** And the Drug uptake [33]?
**A.** 0.54 % ID/g

**Q.** What about the Drug uptake [34] of the same substance?
**A.** 6.11%

**Q.** What about the Drug uptake [35] of the same substance?
**A.** 0.07 % ID/g

**Q.** What about the Drug uptake [36] of the same substance?
**A.** 6.3 % ID/g

**Q.** What about the Drug uptake [37] of the same substance?
**A.** 41.15 %ID/ml

**Q.** And the Drug uptake [38]?
**A.** 45.95 %ID/ml

**Q.** And the remaining at 24 h [39]?
**A.** ≥ 92%

**Q.** What about the Ratio [40] of the same substance?
**A.** 5.75

**Q.** What about the hemolysis at 1 h [41] of the same substance?
**A.** 5 to 6%
